Experiment: mn = molality of the nth substance listed, in mol/kg
Conditions: 298.15 K; for surface tension liquid-gas: Ring tensiometer; for electrical conductivity: 101 kPa, Liquid, DDS-11A conductometer

CCCCCCCCCCCC[n+]1ccn(C)c1.F[B-](F)(F)F [1-dodecyl-3-methylimidazolium tetrafluoroborate] + O
Conditions | electrical conductivity [S/m] | surface tension liquid-gas [mN/m]
m1 = 0.0003 | 0.0324 | 56.4
m1 = 0.0006 | 0.0346 | 50.4
m1 = 0.001 | 0.0379 | 43.1
m1 = 0.0018 | 0.0455 | 34.3
m1 = 0.003 | 0.0553 | 29.6
m1 = 0.006 | 0.0629 | 28.2
m1 = 0.008 | 0.064 | 28.3
m1 = 0.01 | 0.0653 | 28.2
m1 = 0.018 | 0.0712 | 28.3
m1 = 0.03 | 0.0809 | 28
m1 = 0.04 | 0.091 | –
m1 = 0.06 | 0.11 | 27.7

CCCCCCCCCCCCCCCCn1cc[n+](C)c1.F[B-](F)(F)F [1-hexadecyl-3-methylimidazolium tetrafluoroborate] + O
Conditions | electrical conductivity [S/m] | surface tension liquid-gas [mN/m]
m1 = 3e-06 | 0.0022 | –
m1 = 5e-06 | 0.0022 | –
m1 = 7e-06 | 0.0024 | –
m1 = 1e-05 | – | 52.9
m1 = 2e-05 | – | 47.9
m1 = 3e-05 | – | 43.8
m1 = 5e-05 | 0.007 | 38.4
m1 = 7e-05 | 0.0103 | 34.9
m1 = 0.0001 | 0.0142 | 36.7
m1 = 0.0002 | 0.0203 | 37
m1 = 0.0003 | 0.0265 | 36.4
m1 = 0.0005 | 0.0372 | 35.2
m1 = 0.0007 | 0.0462 | 35.2
m1 = 0.001 | 0.0593 | –

CCCCCCCCCCCCCCn1cc[n+](C)c1.F[B-](F)(F)F [3-methyl-1-tetradecyl-1H-imidazol-3-ium tetrafluoroborate] + O
Conditions | electrical conductivity [S/m] | surface tension liquid-gas [mN/m]
m1 = 0.0001 | – | 47.9
m1 = 0.00018 | – | 41.9
m1 = 0.0003 | 0.032 | 39
m1 = 0.0006 | 0.0344 | 33.6
m1 = 0.001 | 0.036 | 29.9
m1 = 0.0018 | 0.0368 | 28.4
m1 = 0.003 | 0.0376 | 27.8
m1 = 0.006 | 0.0393 | 27.6
m1 = 0.01 | 0.0423 | 27.3
m1 = 0.018 | 0.0487 | 27
m1 = 0.03 | 0.0543 | –
m1 = 0.04 | 0.0633 | –
m1 = 0.06 | 0.0732 | –
